These are literature values, as cited in patent EP3085364A1, “PHARMACEUTICAL COMBINED PREPARATION CONTAINING HMG-COA REDUCTASE INHIBITOR AND CHOLESTEROL ABSORPTION INHIBITOR” (Alvogen Korea Co., Ltd., priority 2013, dated 2015).

For series [1] the following is noted: room temperature.

Read-outs that look alike come from different tables or passages of the source.

Take `O=C1[C@H](CC[C@H](O)c2ccc(F)cc2)[C@@H](c2ccc(O)cc2)N1c1ccc(F)cc1` [Ezetimibe, 1-(4-fluorophenyl)-(3R)-[3-(4-fluorophenyl)-(3S)-hydroxypropyl]-(4S)-(4-hydroxyphenyl)-2-azetidinone]: the solubility in water result is recorded as “practically insoluble”. For the same compound, the “solubility in organic solvents” value (ethanol, methanol, or acetone) is recorded as “freely to very soluble”. The stability entry in series [1] is “stable”.

Turning to `CC(C)c1nc(N(C)S(C)(=O)=O)nc(-c2ccc(F)cc2)c1/C=C/[C@@H](O)C[C@@H](O)CC(=O)O` [Rosuvastatin calcium, (E)-7-[4-(4-fluorophenyl)-6-isopropyl-2-[methyl(methylsulfonyl)amino]pyrimidin-5-yl]-(3R,5S)-3,5-dihydroxyhept-6-enic acid], the solubility in water result is “sparingly soluble”. Further, the “solubility in organic solvents” value (N,N-dimethylformamide, acetone, or acetonitrile) is “soluble”.
